Experiments:
human src SH2 domain = biological target: T1, human src SH2 domain (Homo sapiens, UniProt P12931); test: ELISA-based SH2 domain / pY peptide binding assay, src SH2 domain
T1 construct: made in house; host or cells: E. coli AR120
Procedure: (§1) The inhibitory activity of compounds at the different human SH2 domains was determined in vitro using SH2 domains expressed as fusion proteins in E. coli. The SH2 domains used herein were the human forms of the src SH2 domain, Grb2 SH2 domain, lck SH2 domain, fyn SH2 domain, SH-PTP2 SH2 domain, p85 SH2 domain and hcp SH2 domain.
The fusion proteins containing the src, lck and hcp SH2 domains were expressed as the general sequence: DET1-DET2-spacer-ek-SH2, where DET1, DET2, spacer, ek and SH2 are as described below. DET1 ("defined epitope tag 1") (SEQ ID NO: 1) is an 11 amino acid sequence found in the Human Immunodeficiency Virus Type 1 (HIV-1) envelope protein gp120 (or gp160). Monoclonal antibodies to various epitopes of HIV-1 gp120 (or gp 160) are known in the art, see, for example U.S. Patent 5,166,050. One preferred example is monoclonal antibody 178.1 (see, e.g., Thiriart et al., J. Immunol., 143:1832-1836 (1989)), which was prepared by immunization of mice with a yeast-expressed HIV-1 gp160 molecule from strain BH10 (Ratner et al., Nature, 313:277-284 (1985)). This tag was used for detection of expression (by Western blot), for purification of the protein (by affinity chromatography), and for configuring assays in which the fusion protein was captured or immobilized using the 178.1 antibody. DET2 is a hexa-histidine sequence tag (SEQ ID NO: 2) which binds to nickel-containing resins and was used for purification purposes. Spacer (SEQ ID NO: 3) was utilized to design a BamH1 restriction site at the indicated position of the construct. The term -ek-refers to a recognition sequence (SEQ ID NO: 4) for the enterokinase protease which provides for the optional removal of the tags from the SH2 domain, thus producing an SH2 domain that contains no extraneous amino acids. SH2 domains which contain no extraneous amino acids are preferable to tagged protein for crystallography studies. SH2 refers to the SH2 domains of different proteins.
Procedure 2: Cloning, expression and purification of human src SH2 domain containing tags and an enterokinase proteolytic cleavage site (DET1-DET2-spacer-ek-src SH2).
A DNA sequence encoding protein ek-src SH2 was PCR amplified from a cDNA clone containing the human src gene (c-src SH2 DNA sequence identical to that described in Takeya,T. and Hanafusa, H, 1983 Cell 32:881-890) using the following primers: [formula]
The PCR product was digested with BamHI and XbaI, followed by isolation of the digested fragment on an agarose gel. The fragment was ligated into BamHI-XbaI-digested expression vector containing the tagged chicken src gene DET1-DET2-spacer-SH2 described in Procedure 1 above. In that vector, the BamHI site is located between the coding regions for DET2 and SH2, and the XbaI site is located after the 3' end of the SH2 coding region. The ligation reaction was used to transform E. coli MM294cI^+. The construct DET1-DET2-spacer-ek-src SH2 was confirmed by DNA sequencing (SEQ ID NO: 5) and induced in E. coli strain AR120 as described in Procedure 1 above. A Coomassie-Blue-stained, Western-blot-positive induced protein band with an apparent molecular weight of 16,000 was observed after nalidixic acid induction.
Cells were lysed at neutral pH by sonication in the presance of lysozyme. After centrifugation, the soluble extract was chromatographed on a Ni^++NTA column. After washing the column with equilibration buffer (Tris buffer pH 8 containing 0.5 M Nacl) and the same buffer containing 15 mM imidazole, the protein was eluted in highly purified form with 25 mM imidazole in equilibration buffer.
The binding assays for the SH2 domains and pY peptides were performed in an ELISA-based 96 well plate assay. […]

human lck SH2 domain = biological target: T2, human lck SH2 domain (Homo sapiens, UniProt P06239); test: ELISA-based SH2 domain / pY peptide binding assay, lck SH2 domain; conditions: inhibition of binding of 0.1 uM biotinylated pY peptide to SH2 domain fusion protein
T2 construct: made in house; host or cells: E. coli AR120
T2 sequence (P06239 127-224 limits assumed): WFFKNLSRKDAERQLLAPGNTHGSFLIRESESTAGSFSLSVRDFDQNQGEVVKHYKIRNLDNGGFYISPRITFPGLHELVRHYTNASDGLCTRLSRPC
Procedure: as §1
The fusion proteins containing the src, lck and hcp SH2 domains were expressed as the general sequence: DET1-DET2-spacer-ek-SH2, where DET1, DET2, spacer, ek and SH2 are as described below. DET1 ("defined epitope tag 1") (SEQ ID NO: 1) is an 11 amino acid sequence found in the Human Immunodeficiency Virus Type 1 (HIV-1) envelope protein gp120 (or gp160). Monoclonal antibodies to various epitopes of HIV-1 gp120 (or gp 160) are known in the art, see, for example U.S. Patent 5,166,050. One preferred example is monoclonal antibody 178.1 (see, e.g., Thiriart et al., J. Immunol., 143:1832-1836 (1989)), which was prepared by immunization of mice with a yeast-expressed HIV-1 gp160 molecule from strain BH10 (Ratner et al., Nature, 313:277-284 (1985)). This tag was used for detection of expression (by Western blot), for purification of the protein (by affinity chromatography), and for configuring assays in which the fusion protein was captured or immobilized using the 178.1 antibody. […]

T1 sequence (P12931 148-251): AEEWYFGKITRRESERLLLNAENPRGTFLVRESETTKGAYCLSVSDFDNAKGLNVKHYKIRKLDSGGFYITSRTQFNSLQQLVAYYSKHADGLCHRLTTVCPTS

Ki (human src SH2 domain; Ki calculated from IC50 with the expanded equation): 13 µM | IC50 (human src SH2 domain; inhibition of binding of 0.1 uM biotinylated pY peptide to SH2 domain fusion protein): 20 µM | IC50 (human lck SH2 domain): > 300 µM
Structure (SMILES): CCCCCCNC(=O)[C@H]1CC[C@H](CNC(=O)c2ccc(C(=O)c3ccc(C(=O)O)cc3)cc2)CC1 [Compound 6, 4-carboxy-benzophenone-4-carboxamido-trans-4-methyl-cyclohexyl-N-hexyl carboxamide]
